Test results reported in patent US8957025B2, “Enkephalin analogues” (Pfizer Inc., priority 2011, dated 2015).

Experiments:
[1] = Dofetilide binding; conditions: probe dofetilide
[2] = Human liver microsomal stability assay (HLM); assay type: in vitro ADME; conditions: pooled liver microsomes, pH 7.4, 1 μM substrate, 37° C.
Description: In vitro measurement of substrate metabolism can be determined using the microsomal cytochrome P450 mono-oxygenase system. This is a useful application in ranking clearance of a number of compounds by Phase I (including cytochrome P450) metabolism prior to in vivo assessment Measurement of intrinsic clearance using these methods also allows a comparison of species difference to be made to assist with translation of pharmacokinetic parameters from preclinical to clinical study.
Human and rat Liver microsomal assays were performed using pooled microsomes from the Pfizer Global Supply (BD Gentest™). Chemical reagents were purchased from commercial sources (Sigma-Aldrich) and drug entities synthesised at Pfizer Global Research. Incubation mixtures contained 50 mM phosphate buffer pH 7.4, 5 mM MgCl2, 5 mM isocitric acid and 1 unit/ml isocitric dehydrogenase. The microsomes were defrosted at room temperature and sufficient volumes added to give a final concentration of 0.5 nmol cytochrome P450/ml. Following the addition of 1 μM of substrate, the incubation was pre-incubated at 37° C. for 5 minutes. The reaction was then initiated by the addition of 1 mM NADP and incubation aliquots are taken over a 1 h time course. The reaction was subsequently stopped by addition of acetonitrile cooled on ice. […]
The intrinsic clearance in rat or human liver microsomes is calculated from: […]

[3] = Lipophilicity (LogD), shake-flask octanol/buffer pH 7.4; assay type: physicochemical; conditions: octanol / 0.1M phosphate buffer pH 7.4
Description: LogD octanol (pH 7.4) is a measure of lipophilicity that accounts for both hydrophobic and hydrogen-bonding interactions of a given substrate. This assay is based on shake-flask methodology, performed in a fully automated manner in a 0.1M phosphate buffer pH7.4-octanol system.
After addition of the test substance in DMSO stock solution to the mixture and vigorous agitation followed by separation of the octanol and buffer layers by centrifugation, duplicate samples are removed from each layer and diluted prior to analysis by LC-MS/MS. Peak area is corrected for dilutions and the following equation used to calculate the logD (pH 7.4): […]
The duplicate logD values must be with 0.4 log units of each other and the positive controls must be within 0.2 log units of the known logD value.

[4] = target: mu opioid receptor (UniProt P35372); experiment: Mu-opioid receptor agonist activity; assay type: cell-based
Method: The ability of agonists to cause recruitment of beta-arrestin to the mu opioid receptor was measured using DiscoveRx PathHunter technology. A pro-linked tagged mu-opioid receptor and an EA-tagged beta-arrestin were expressed in U2OS cells and beta-arrestin recruitment measured following the methodology in McGuinness et al., 2009 (J Biomol Screen 14:49-58, Characterizing cannabinoid CB2 receptor ligands using DiscoverRx PathHunter beta-arrestin assay—McGuinness D., Malikzay A., Visconti R., Lin K., Bayne M., Monsma F., Lunn C A.)
The ability of mu opioid receptor agonists to inhibit forskolin stimulated cAMP production was measured in CHO cells recombinantly expressing the mu opioid receptor, using alphascreen technology as described in Nickolls et al., 2005, with the additional inclusion of 50 uM forskolin in the assay buffer. (J Pharmacol Exp Ther 313; 1281-88, Functional selectivity of melanocortin 4 receptor peptide and non-peptide agonists: Evidence for ligand specific conformational states. Nickolls S A., Fleck B., Hoare S., Maki R.)
Functional activity at the mu-opioid receptors was determined using the electrically stimulated guinea pig isolated myenteric plexus preparation following the methodology of Hughes, J.; Kosterlitz, H. W. and Leslie, F. M. Br. J. Pharmacol. 1975, 53, 371.

[5] = test system: MDR; experiment: MDR Papp permeability; assay type: in vitro ADME; conditions: not told

SMILES | IC50 [1] | microsomal CLint at 1 μM [2] | logD [3] | IC50 [4] | Papp [5]
Cc1cc(O)cc(C)c1C[C@H](N)C(=O)N[C@H](C)C(=O)NC[C@H](N)Cc1ccccc1 [Example 2, 2,6-Dimethyl-L-tyrosyl-N-[(2R)-2-amino-3-phenylpropyl]-D-alaninamide] | > 22000 nM | < 8 µL/min/mg | -0.2 | 6 nM | 0.6 ×10⁻⁶ cm/s
Cc1cc(O)cc(C)c1C[C@H](N)C(=O)N[C@H](C)C(=O)NC[C@@H](N)Cc1ccccc1 [Example 1, 2,6-Dimethyl-L-tyrosyl-N-[(2S)-2-amino-3-phenylpropyl]-D-alaninamide] | > 22000 nM | 8.4 µL/min/mg | 0.05 | 9.8 nM | 0.7 ×10⁻⁶ cm/s
